Measured values from PubChem BioAssay AID328 (DTP/NCI, 2004).
Several values for one entry are separate records, joined by “and”; a condition that tells them apart may be missing. Equal values may be shown once. Toxic doses and inconclusive results are not listed.

Tested on: BDF1 mice, P388 leukemia ip, median survival T/C
Experiment: NCI In Vivo Anticancer Drug Screen. Data for tumor model P388 Leukemia (intraperitoneal) in B6D2F1 (BDF1) mice
Details: endpoint: median survival time, higher = longer survival
Procedure, shortened: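 Read-out is survival of treated animals expressed relative to the vehicle group, as a T/C ratio.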

[1] = dose: 100.0 mg/kg/injection, schedule: Q04DX003 (ip), vehicle: saline with Tween-80
[2] = dose: 200.0 mg/kg/injection, schedule: Q04DX003 (ip), vehicle: saline with Tween-80
[3] = dose: 400.0 mg/kg/injection, schedule: Q04DX003 (ip), vehicle: saline with Tween-80
[4] = dose: 100.0 mg/kg/injection, schedule: Q01DX009 (ip), vehicle: saline with Tween-80
[5] = dose: 200.0 mg/kg/injection, schedule: Q01DX009 (ip), vehicle: saline with Tween-80
[6] = dose: 100.0 mg/kg/injection, schedule: Q01DX009 (ip), vehicle: saline
[7] = dose: 200.0 mg/kg/injection, schedule: Q01DX009 (ip), vehicle: saline
[8] = dose: 25.0 mg/kg/injection, schedule: Q01DX009 (ip), vehicle: saline with Tween-80
[9] = dose: 50.0 mg/kg/injection, schedule: Q01DX009 (ip), vehicle: saline with Tween-80
[10] = dose: 16.0 mg/kg/injection, schedule: Q01DX009 (ip), vehicle: saline with Tween-80

[Cl][Pt+2][Cl].[NH-]CC1(C[NH-])CCC1
T/C (dose: 0.4 mg/kg/injection, schedule: Q01DX009 (ip), vehicle: suspension in saline): 156 % of control
T/C (dose: 0.79 mg/kg/injection, schedule: Q01DX009 (ip), vehicle: suspension in saline): 154 % of control
T/C (dose: 1.56 mg/kg/injection, schedule: Q01DX009 (ip), vehicle: suspension in saline): 250 % of control
T/C (dose: 3.12 mg/kg/injection, schedule: Q01DX009 (ip), vehicle: suspension in saline): 250 % of control
T/C (dose: 6.25 mg/kg/injection, schedule: Q01DX009 (ip), vehicle: suspension in saline): 169 % of control
T/C (dose: 12.5 mg/kg/injection, schedule: Q01DX009 (ip), vehicle: suspension in saline): 104 % of control

C=C1C/C(=C/C)C(=O)O[C@@H]2CCN3CC=C(COC(=O)[C@]1(C)O)[C@H]23
T/C (dose: 25.0 mg/kg/injection, schedule: Q01DX010 (ip), vehicle: carboxymethylcellulose (CMC)): 111 % of control
T/C (dose: 50.0 mg/kg/injection, schedule: Q01DX010 (ip), vehicle: carboxymethylcellulose (CMC)): 111 % of control
T/C (dose: 100.0 mg/kg/injection, schedule: Q01DX010 (ip), vehicle: carboxymethylcellulose (CMC)): 111 % of control

CN(C)CC#N
T/C (dose: 10.0 mg/kg/injection, schedule: Q04DX003 (ip), vehicle: saline): 108 % of control
T/C (dose: 20.0 mg/kg/injection, schedule: Q04DX003 (ip), vehicle: saline): 91 % of control
T/C (dose: 40.0 mg/kg/injection, schedule: Q04DX003 (ip), vehicle: saline): 95 % of control

NC(=S)c1ccc(N)nc1
T/C [1]: 103 % of control
T/C [2]: 110 % of control
T/C [3]: 110 % of control

O=C(CBr)CC(=O)Nc1ccccc1
T/C (dose: 12.5 mg/kg/injection, schedule: Q01DX009 (ip), vehicle: saline with Tween-80): 100 % of control

CCCCC(=O)NC(=O)c1ccccc1
T/C [4]: 104 % of control
T/C [1]: 108 % of control
T/C [5]: 104 % of control
T/C [2]: 104 % of control
T/C [3]: 100 % of control

OC(c1ccccc1)(C1CCNCC1)C1CC1 (stereo not drawn)
T/C (dose: 25.0 mg/kg/injection, schedule: Q01DX001 (ip), vehicle: saline): 107 % of control
T/C (dose: 50.0 mg/kg/injection, schedule: Q01DX001 (ip), vehicle: saline): 107 % of control
T/C (dose: 100.0 mg/kg/injection, schedule: Q01DX001 (ip), vehicle: saline): 118 % of control

c1ccc(C2CCCCCC2)cc1
T/C [6]: 110 % of control
T/C (dose: 100.0 mg/kg/injection, schedule: Q04DX003 (ip), vehicle: saline): 100 % of control
T/C (dose: 166.0 mg/kg/injection, schedule: Q01DX009 (ip), vehicle: saline): 110 % of control
T/C [7]: 105 % of control
T/C (dose: 200.0 mg/kg/injection, schedule: Q04DX003 (ip), vehicle: saline): 90 % of control
T/C (dose: 400.0 mg/kg/injection, schedule: Q04DX003 (ip), vehicle: saline): 100 % of control

Cc1ccc(C(=O)/C=C\c2ccccc2)cc1
T/C [4]: 104 % of control
T/C [1]: 103 % of control
T/C [5]: 104 % of control
T/C [2]: 103 % of control
T/C (dose: 400.0 mg/kg/injection, schedule: Q01DX009 (ip), vehicle: saline with Tween-80): 104 % of control
T/C [3]: 103 % of control

CCCCCCCCCC(=O)NN1CCOCC1
T/C (dose: 100.0 mg/kg/injection, schedule: Q01DX001 (ip), vehicle: saline with Tween-80): 104 % of control
T/C (dose: 200.0 mg/kg/injection, schedule: Q01DX001 (ip), vehicle: saline with Tween-80): 120 % of control
T/C (dose: 400.0 mg/kg/injection, schedule: Q01DX001 (ip), vehicle: saline with Tween-80): 104 % of control

CC[N+]1(CC)CC[N+]2(CC1)CC[N+]1(CC[N+](CC)(CC)CC1)CC2
T/C (dose: 50.0 mg/kg/injection, schedule: Q01DX009 (ip), vehicle: saline): 101 % of control
T/C [6]: 101 % of control
T/C [7]: 106 % of control

CC(=O)OCC(OC(C)=O)c1cc(/C=N/N(C(C)=O)c2ccccc2)nn1-c1ccccc1 (stereo not drawn)
T/C [8]: 101 % of control
T/C [9]: 98 % of control
T/C [4]: 96 % of control

CC[C@H](c1ccc(O)cc1)[C@@H](CC)c1ccc(O)cc1
T/C (dose: 50.0 mg/kg/injection, schedule: Q01DX009 (ip), vehicle: Klucel (hydroxypropylcellulose) (HPC)): 90 % of control
T/C (dose: 100.0 mg/kg/injection, schedule: Q01DX009 (ip), vehicle: Klucel (hydroxypropylcellulose) (HPC)): 100 % of control
T/C (dose: 100.0 mg/kg/injection, schedule: Q04DX003 (ip), vehicle: other): 100 % of control
T/C (dose: 132.0 mg/kg/injection, schedule: Q04DX003 (ip), vehicle: Klucel (hydroxypropylcellulose) (HPC)): 104 % of control and 120 % of control
T/C (dose: 200.0 mg/kg/injection, schedule: Q01DX009 (ip), vehicle: Klucel (hydroxypropylcellulose) (HPC)): 104 % of control
T/C (dose: 200.0 mg/kg/injection, schedule: Q04DX003 (ip), vehicle: Klucel (hydroxypropylcellulose) (HPC)): 104 % of control and 120 % of control
T/C (dose: 300.0 mg/kg/injection, schedule: Q04DX003 (ip), vehicle: Klucel (hydroxypropylcellulose) (HPC)): 109 % of control and 110 % of control
T/C (dose: 400.0 mg/kg/injection, schedule: Q04DX003 (ip), vehicle: other): 105 % of control

CNC(=N)c1ccc(NC(=N)c2ccc(NC(=N)c3ccc(NC(=O)Nc4ccc(C#N)cc4)cc3)cc2)cc1
T/C (dose: 3.0 mg/kg/injection, schedule: Q04DX003 (ip), vehicle: saline with Tween-80): 123 % of control
T/C (dose: 14.0 mg/kg/injection, schedule: Q04DX003 (ip), vehicle: saline with Tween-80): 163 % of control
T/C [10]: 157 % of control
T/C (dose: 24.0 mg/kg/injection, schedule: Q01DX009 (ip), vehicle: saline with Tween-80): 173 % of control and 200 % of control
T/C (dose: 33.0 mg/kg/injection, schedule: Q04DX003 (ip), vehicle: saline with Tween-80): 250 % of control and 168 % of control and 200 % of control
T/C (dose: 37.0 mg/kg/injection, schedule: Q01DX009 (ip), vehicle: saline with Tween-80): 230 % of control
T/C (dose: 37.5 mg/kg/injection, schedule: Q01DX009 (ip), vehicle: saline with Tween-80): 153 % of control
T/C [9]: 103 % of control
T/C (dose: 50.0 mg/kg/injection, schedule: Q04DX003 (ip), vehicle: saline with Tween-80): 250 % of control and 186 % of control
T/C (dose: 75.0 mg/kg/injection, schedule: Q04DX003 (ip), vehicle: saline with Tween-80): 250 % of control and 172 % of control
T/C (dose: 112.0 mg/kg/injection, schedule: Q04DX003 (ip), vehicle: saline with Tween-80): 216 % of control

CC1CN(Cc2ccc([N+](=O)[O-])cc2)CC(C)N1N (stereo not drawn)
T/C (dose: 3.12 mg/kg/injection, schedule: Q04DX003 (ip), vehicle: saline with Tween-80): 96 % of control
T/C (dose: 6.25 mg/kg/injection, schedule: Q04DX003 (ip), vehicle: saline with Tween-80): 116 % of control
T/C (dose: 12.5 mg/kg/injection, schedule: Q04DX003 (ip), vehicle: saline with Tween-80): 107 % of control
T/C (dose: 25.0 mg/kg/injection, schedule: Q04DX003 (ip), vehicle: saline with Tween-80): 107 % of control

C=C1C(=O)OC2C1CCC(=C)C1CC(O)C(=C)C12 (stereo not drawn)
T/C (dose: 7.4 mg/kg/injection, schedule: Q01DX009 (ip), vehicle: saline with Tween-80): 91 % of control
T/C (dose: 11.0 mg/kg/injection, schedule: Q01DX009 (ip), vehicle: saline with Tween-80): 104 % of control
T/C [10]: 91 % of control
T/C [8]: 100 % of control

Nc1c(C(=O)O)ccc2c1C(=O)c1ccccc1C2=O
T/C (dose: 44.0 mg/kg/injection, schedule: Q04DX003 (ip), vehicle: gum acacia): 87 % of control
T/C (dose: 50.0 mg/kg/injection, schedule: Q01DX009 (ip), vehicle: gum acacia): 92 % of control
T/C (dose: 67.0 mg/kg/injection, schedule: Q04DX003 (ip), vehicle: Klucel (hydroxypropylcellulose) (HPC)): 115 % of control
T/C (dose: 67.0 mg/kg/injection, schedule: Q04DX003 (ip), vehicle: gum acacia): 100 % of control
T/C (dose: 100.0 mg/kg/injection, schedule: Q01DX009 (ip), vehicle: gum acacia): 103 % of control
T/C (dose: 100.0 mg/kg/injection, schedule: Q04DX003 (ip), vehicle: Klucel (hydroxypropylcellulose) (HPC)): 120 % of control
T/C (dose: 100.0 mg/kg/injection, schedule: Q04DX003 (ip), vehicle: gum acacia): 87 % of control
T/C (dose: 150.0 mg/kg/injection, schedule: Q04DX003 (ip), vehicle: Klucel (hydroxypropylcellulose) (HPC)): 110 % of control
T/C (dose: 150.0 mg/kg/injection, schedule: Q04DX003 (ip), vehicle: gum acacia): 116 % of control

CCCCN(C)N=Nc1c(C(N)=O)n[nH]c1C
T/C (dose: 22.0 mg/kg/injection, schedule: Q01DX009 (ip), vehicle: saline with Tween-80): 122 % of control
T/C [8]: 120 % of control
T/C [9]: 154 % of control
T/C (dose: 88.0 mg/kg/injection, schedule: Q04DX003 (ip), vehicle: Klucel (hydroxypropylcellulose) (HPC)): 109 % of control

CC1(C)CC(=O)C(C(c2cccc(O)c2O)C2C(=O)CC(C)(C)CC2=O)C(=O)C1
T/C [9]: 123 % of control
T/C [4]: 100 % of control
T/C [5]: 91 % of control
